According to US8921410B2, “Nicotinic acetylcholine receptor sub-type selective amides of diazabicycloalkanes” (Targacept, Inc., priority 2006, dated 2014):
Read-outs that look alike come from different tables or passages of the source.

Columns and labels:
α7 nAChR subtype = α7 nAChR subtype (Rattus norvegicus (Rat), UniProt Q05941); test: Radioligand ([3H]MLA) binding at α7 nAChR, rat hippocampus membranes
Protocol: Rats (female, Sprague-Dawley), weighing 150-250 g, were maintained on a 12 h light/dark cycle and were allowed free access to water and food supplied by PMI Nutrition International, Inc. Animals were anesthetized with 70% CO2, then decapitated. Brains were removed and placed on an ice-cold platform. […] The homogenate was centrifuged at 18,000×g for 20 min at 4° C. and the resulting pellet was re-suspended in 10 volumes of ice-cold water. After 60 min incubation on ice, a new pellet was collected by centrifugation at 18,000×g for 20 min at 4° C. The final pellet was re-suspended in 10 volumes of buffer and stored at −20° C.
The binding of [^3H]MLA was measured using a modification of the methods of Davies et al., Neuropharmacol. […] [^3H]MLA (Specific Activity=25-35 Ci/mmol) was obtained from Tocris. The binding of [^3H]MLA was determined using a 2 h incubation at 21° C. Incubations were conducted in 48-well micro-titre plates and contained about 200 μg of protein per well in a final incubation volume of 300 μL. The incubation buffer was PBS and the final concentration of [^3H]MLA was 5 nM. The binding reaction was terminated by filtration of the protein containing bound ligand onto glass fiber filters (GF/B, Brandel) using a Brandel Tissue Harvester at room temperature. […] Each filter was washed with PBS (3×1 mL) at room temperature. Non-specific binding was determined by inclusion of 50 μM non-radioactive MLA in selected wells.
The inhibition of [^3H]MLA binding by test compounds was determined by including seven different concentrations of the test compound in selected wells. Each concentration was replicated in triplicate. IC50 values were estimated as the concentration of compound that inhibited 50 percent of specific [^3H]MLA binding.

human α4β2 nAChR subtype = human α4β2 nAChR subtype (Homo sapiens (Human), UniProt P17787+P43681); test: Radioligand ([3H]nicotine) binding at α4β2 nAChR, SH-EP1/human α4β2 clonal cell membranes; conditions: read-out: Human α4β2 Ki
Protocol: Preparation of Membranes from SH-EP1/Human α4β2 Clonal Cells:
Cell pellets from 40 150 mm culture dishes were pooled, and homogenized by Polytron (Kinematica GmbH, Switzerland) in 20 milliliters of ice-cold preparative buffer. The homogenate was centrifuged at 48,000 g for 20 minutes at 4° C. The resulting pellet was re-suspended in 20 mL of ice-cold preparative buffer and stored at −20° C.
(§1) On the day of the assay, the frozen membranes were thawed and spun at 48,000×g for 20 min. The supernatant was decanted and discarded. The pellet was resuspended in Dulbecco's phosphate buffered saline (PBS, Life Technologies) pH 7.4 and homogenized with the Polytron for 6 seconds. Protein concentrations were determined using a Pierce BCA Protein Assay Kit, with bovine serum albumin as the standard (Pierce Chemical Company, Rockford, Ill.).
(§2) Tissue was rinsed 3 times in PBS, pH 7.4. Scintillation fluid was added to filters containing the washed tissue and allowed to equilibrate.
(§3) Data were expressed as disintegrations per minute (DPMs). Within each assay, each point had 2-3 replicates. The replicates for each point were averaged and plotted against the log of the drug concentration.

rat α4β2 nAChR subtype = rat α4β2 nAChR subtype (Rattus norvegicus (Rat), UniProt P09483+P12390); test: Radioligand ([3H]nicotine) binding at α4β2 nAChR, rat cortex membranes
Protocol: Preparation of Membranes from Rat Cortex:
Rats (female, Sprague-Dawley), weighing 150-250 g, were maintained on a 12 h light/dark cycle and were allowed free access to water and food supplied by PMI Nutrition International, Inc. Animals were anesthetized with 70% CO2, and then decapitated. Brains were removed and placed on an ice-cold platform. […] The homogenate was centrifuged at 18,000×g for 20 min at 4° C. and the resulting pellet was re-suspended in 20 volumes of ice-cold water. After 60 min incubation on ice, a new pellet was collected by centrifugation at 18,000×g for 20 min at 4° C. The final pellet was re-suspended in 10 volumes of buffer and stored at −20° C.
as §1, §2, §3

[1] = did not bind sufficiently in HTS at α7 to warrant Ki determination
[2] = [3H]nicotine 5 nM, SH-EP1/human α4β2 membranes
[3] = [3H]nicotine 5 nM, rat cortex membranes

Chain of α7 nAChR subtype (Q05941 23-502): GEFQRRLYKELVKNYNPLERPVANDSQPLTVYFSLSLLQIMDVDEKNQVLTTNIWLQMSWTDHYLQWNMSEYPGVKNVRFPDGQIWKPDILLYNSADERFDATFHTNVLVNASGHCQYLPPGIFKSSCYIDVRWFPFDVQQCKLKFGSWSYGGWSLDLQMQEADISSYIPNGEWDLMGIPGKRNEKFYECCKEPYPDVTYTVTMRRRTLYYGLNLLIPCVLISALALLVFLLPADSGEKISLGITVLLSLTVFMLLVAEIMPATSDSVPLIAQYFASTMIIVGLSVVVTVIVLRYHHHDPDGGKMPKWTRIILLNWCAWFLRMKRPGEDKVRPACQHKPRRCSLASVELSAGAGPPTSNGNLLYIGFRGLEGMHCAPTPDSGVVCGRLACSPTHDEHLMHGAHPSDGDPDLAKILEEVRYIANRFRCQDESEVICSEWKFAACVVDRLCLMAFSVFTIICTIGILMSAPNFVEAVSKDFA
Chain of human α4β2 nAChR subtype (P43681 29-627): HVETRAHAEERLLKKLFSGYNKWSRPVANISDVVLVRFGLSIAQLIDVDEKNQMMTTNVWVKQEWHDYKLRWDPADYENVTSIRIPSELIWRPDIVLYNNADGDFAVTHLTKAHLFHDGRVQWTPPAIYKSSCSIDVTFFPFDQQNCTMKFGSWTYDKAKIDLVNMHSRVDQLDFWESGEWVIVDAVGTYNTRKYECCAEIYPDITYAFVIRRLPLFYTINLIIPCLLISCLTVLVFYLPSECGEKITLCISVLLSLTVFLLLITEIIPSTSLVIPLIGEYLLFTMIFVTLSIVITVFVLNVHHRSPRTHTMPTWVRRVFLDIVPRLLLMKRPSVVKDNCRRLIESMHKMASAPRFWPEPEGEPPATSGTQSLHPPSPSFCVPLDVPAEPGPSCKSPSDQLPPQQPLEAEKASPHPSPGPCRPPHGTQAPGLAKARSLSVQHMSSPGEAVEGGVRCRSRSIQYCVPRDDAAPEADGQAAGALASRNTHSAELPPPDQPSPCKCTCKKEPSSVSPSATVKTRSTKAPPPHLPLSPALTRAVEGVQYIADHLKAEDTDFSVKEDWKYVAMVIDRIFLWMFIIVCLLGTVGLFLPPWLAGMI
Chain of human α4β2 nAChR subtype (P17787 26-502): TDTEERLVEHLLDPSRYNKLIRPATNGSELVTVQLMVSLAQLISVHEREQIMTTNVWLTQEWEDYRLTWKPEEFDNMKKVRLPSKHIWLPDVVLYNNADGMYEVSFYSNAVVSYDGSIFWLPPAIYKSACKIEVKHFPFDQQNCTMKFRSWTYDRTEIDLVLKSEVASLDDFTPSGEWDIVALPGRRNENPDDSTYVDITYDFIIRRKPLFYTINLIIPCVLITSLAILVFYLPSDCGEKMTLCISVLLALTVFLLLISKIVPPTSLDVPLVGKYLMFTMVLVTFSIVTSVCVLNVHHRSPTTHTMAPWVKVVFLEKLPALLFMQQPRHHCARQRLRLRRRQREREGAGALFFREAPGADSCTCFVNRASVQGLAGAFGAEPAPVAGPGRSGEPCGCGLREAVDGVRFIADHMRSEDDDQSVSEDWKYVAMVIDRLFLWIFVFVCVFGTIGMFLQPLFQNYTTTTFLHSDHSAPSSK
Chain of rat α4β2 nAChR subtype (P09483 31-630): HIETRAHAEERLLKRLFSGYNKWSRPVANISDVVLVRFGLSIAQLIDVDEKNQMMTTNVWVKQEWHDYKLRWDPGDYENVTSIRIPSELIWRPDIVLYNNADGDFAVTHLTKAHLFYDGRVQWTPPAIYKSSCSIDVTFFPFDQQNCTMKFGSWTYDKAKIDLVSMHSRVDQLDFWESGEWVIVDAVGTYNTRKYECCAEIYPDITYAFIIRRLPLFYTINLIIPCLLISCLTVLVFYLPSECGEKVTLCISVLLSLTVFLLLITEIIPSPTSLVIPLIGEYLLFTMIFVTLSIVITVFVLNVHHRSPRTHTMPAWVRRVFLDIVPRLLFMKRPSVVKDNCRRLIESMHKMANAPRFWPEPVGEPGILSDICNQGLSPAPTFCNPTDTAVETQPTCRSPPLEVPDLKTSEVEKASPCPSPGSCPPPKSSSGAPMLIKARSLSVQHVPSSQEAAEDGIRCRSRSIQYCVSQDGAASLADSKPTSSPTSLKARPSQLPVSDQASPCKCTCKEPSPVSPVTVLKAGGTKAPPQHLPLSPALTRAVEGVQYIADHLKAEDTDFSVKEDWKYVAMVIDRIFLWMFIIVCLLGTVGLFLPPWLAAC
Chain of rat α4β2 nAChR subtype (P12390 25-500): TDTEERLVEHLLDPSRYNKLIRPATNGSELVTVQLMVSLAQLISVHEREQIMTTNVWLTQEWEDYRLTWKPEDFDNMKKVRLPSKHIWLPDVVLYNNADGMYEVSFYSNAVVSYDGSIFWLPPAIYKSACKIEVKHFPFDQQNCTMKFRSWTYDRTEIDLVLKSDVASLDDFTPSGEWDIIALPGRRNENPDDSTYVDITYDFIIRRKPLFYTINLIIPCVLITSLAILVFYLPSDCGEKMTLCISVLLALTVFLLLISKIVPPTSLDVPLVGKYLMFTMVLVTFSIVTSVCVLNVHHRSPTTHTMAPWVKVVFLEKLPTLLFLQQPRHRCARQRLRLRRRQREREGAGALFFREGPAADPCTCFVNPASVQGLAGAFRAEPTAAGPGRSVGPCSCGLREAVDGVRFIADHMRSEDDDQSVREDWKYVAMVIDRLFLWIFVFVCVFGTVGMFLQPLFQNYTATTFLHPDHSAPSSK

How did the “α7 high through-put screening outcome (Ki not determined)” value (α7 nAChR subtype; [1]) turn out when CCCCC#Cc1coc(C(=O)N2CC3CNCC3C2)c1 (centres unmarked) was run?
The value was “ND; failed HTS”.

What about the Ki (human α4β2 nAChR subtype; [2]) of the same molecule?
Its Ki is 21 nM.

And the Ki (rat α4β2 nAChR subtype; [3])?
Its Ki is 43 nM.

For O=C(c1occc1Cl)N1CC2CNCC2C1 (centres unmarked), which “α7 high through-put screening outcome (Ki not determined)” value (α7 nAChR subtype; [1]) is on record?
The value was “ND; failed HTS”.

What about the Ki (human α4β2 nAChR subtype; [2]) of the same molecule?
Its Ki is 2.4 nM.

What about the Ki (rat α4β2 nAChR subtype; [3]) of the same molecule?
Its Ki is 2.8 nM.

Which results are given for O=C(c1ccc(F)o1)N1CC2CNCC2C1 (centres unmarked)?
α7 high through-put screening outcome (Ki not determined) (α7 nAChR subtype; [1]): ND; failed HTS; Ki (human α4β2 nAChR subtype; [2]): 16 nM; Ki (rat α4β2 nAChR subtype; [3]): 8.3 nM

Which “α7 high through-put screening outcome (Ki not determined)” value (α7 nAChR subtype; [1]) does the source give for O=C(c1cc(Br)c(Br)o1)N1CC2CNCC2C1 (centres unmarked) here?
Its value is “ND; failed HTS”.

With O=C(c1occc1F)N1CC2CNCC2C1 (centres unmarked) as the molecule, how does the “α7 high through-put screening outcome (Ki not determined)” value (α7 nAChR subtype) read?
The value was “ND; failed HTS”.

And the Ki (human α4β2 nAChR subtype; [2])?
The Ki was 27 nM.

And the Ki (rat α4β2 nAChR subtype; [3])?
Its Ki is 35 nM.

With N#Cc1ccoc1C(=O)N1CC2CNCC2C1 (centres unmarked) as the molecule, how does the “α7 high through-put screening outcome (Ki not determined)” value (α7 nAChR subtype) read?
The value was “ND; failed HTS”.

What about the Ki (human α4β2 nAChR subtype) of the same molecule?
The Ki was 14 nM.

And the Ki (rat α4β2 nAChR subtype)?
The Ki was 25 nM.

How did the “α7 high through-put screening outcome (Ki not determined)” value (α7 nAChR subtype; [1]) turn out when O=C(c1cc(Cl)co1)N1CC2CNCC2C1 (centres unmarked) was run?
The value was “ND; failed HTS”.

And the Ki (human α4β2 nAChR subtype; [2])?
The Ki was 9.7 nM.

What about the Ki (rat α4β2 nAChR subtype; [3]) of the same molecule?
Its Ki is 21 nM.

O=C(c1ccon1)N1CC2CNCC2C1 (centres unmarked) was tested. Which “α7 high through-put screening outcome (Ki not determined)” value (α7 nAChR subtype; [1]) did it give?
The value was “ND; failed HTS”.

What about the Ki (human α4β2 nAChR subtype; [2]) of the same molecule?
Its Ki is 90 nM.

What about the Ki (rat α4β2 nAChR subtype; [3]) of the same molecule?
Its Ki is 89 nM.

Which results are given for O=C(c1cc(F)co1)N1CC2CNCC2C1 (centres unmarked)?
α7 high through-put screening outcome (Ki not determined) (α7 nAChR subtype; [1]): ND; failed HTS; Ki (human α4β2 nAChR subtype; [2]): 21 nM; Ki (rat α4β2 nAChR subtype; [3]): 36 nM

C#Cc1ccc(C(=O)N2CC3CNCC3C2)o1 (centres unmarked) was tested. Which “α7 high through-put screening outcome (Ki not determined)” value (α7 nAChR subtype; [1]) did it give?
The value was “ND; failed HTS”.

What about the Ki (human α4β2 nAChR subtype; [2]) of the same molecule?
The Ki was 48 nM.

And the Ki (rat α4β2 nAChR subtype; [3])?
The Ki was 140 nM.

How did the “α7 high through-put screening outcome (Ki not determined)” value (α7 nAChR subtype; [1]) turn out when N#Cc1ccc(C(=O)N2CC3CNCC3C2)o1 (centres unmarked) was run?
The value was “ND; failed HTS”.

And the Ki (human α4β2 nAChR subtype)?
The Ki was 40 nM.

What about the Ki (rat α4β2 nAChR subtype; [3]) of the same molecule?
Its Ki is 50 nM.

With Cc1cc(F)c(C(=O)N2CC3CNCC3C2)o1 (centres unmarked) as the molecule, how does the “α7 high through-put screening outcome (Ki not determined)” value (α7 nAChR subtype; [1]) read?
The value was “ND; failed HTS”.

And the Ki (human α4β2 nAChR subtype; [2])?
Its Ki is 14 nM.

What about the Ki (rat α4β2 nAChR subtype) of the same molecule?
Its Ki is 65 nM.

How did the “α7 high through-put screening outcome (Ki not determined)” value (α7 nAChR subtype) turn out when O=C(c1ccno1)N1CC2CNCC2C1 (centres unmarked) was run?
The value was “ND; failed HTS”.

And the Ki (human α4β2 nAChR subtype; [2])?
The Ki was 69 nM.

What about the Ki (rat α4β2 nAChR subtype; [3]) of the same molecule?
The Ki was 43 nM.

With O=C(c1occc1Br)N1CC2CNCC(C2)C1 as the molecule, how does the “α7 high through-put screening outcome (Ki not determined)” value (α7 nAChR subtype; [1]) read?
Its value is “ND; failed HTS”.

What about the Ki (human α4β2 nAChR subtype) of the same molecule?
The Ki was 17 nM.

What about the Ki (rat α4β2 nAChR subtype; [3]) of the same molecule?
Its Ki is 79 nM.

For O=C(c1ccc(Br)o1)N1CC2CNCC(C2)C1, which “α7 high through-put screening outcome (Ki not determined)” value (α7 nAChR subtype; [1]) is on record?
The value was “ND; failed HTS”.

What about the Ki (human α4β2 nAChR subtype; [2]) of the same molecule?
The Ki was 51 nM.

And the Ki (rat α4β2 nAChR subtype)?
The Ki was 41 nM.

Which “α7 high through-put screening outcome (Ki not determined)” value (α7 nAChR subtype) does the source give for Cc1ccc(C(=O)N2CC3CNCC(C3)C2)o1 here?
The value was “ND; failed HTS”.

And the Ki (human α4β2 nAChR subtype; [2])?
The Ki was 42 nM.

What about the Ki (rat α4β2 nAChR subtype; [3]) of the same molecule?
Its Ki is 100 nM.

COc1cc(C(=O)N2CC3CNCC(C3)C2)on1 was tested. Which “α7 high through-put screening outcome (Ki not determined)” value (α7 nAChR subtype; [1]) did it give?
Its value is “ND; failed HTS”.

What about the Ki (human α4β2 nAChR subtype; [2]) of the same molecule?
Its Ki is 180 nM.

And the Ki (rat α4β2 nAChR subtype)?
Its Ki is 33 nM.

O=C(c1cc(Br)no1)N1CC2CNCC(C2)C1 was tested. Which “α7 high through-put screening outcome (Ki not determined)” value (α7 nAChR subtype; [1]) did it give?
The value was “ND; failed HTS”.

And the Ki (human α4β2 nAChR subtype)?
The Ki was 18 nM.

What about the Ki (rat α4β2 nAChR subtype; [3]) of the same molecule?
Its Ki is 5.9 nM.

Which results are given for Cc1cc(C(=O)N2CC3CNCC(C3)C2)no1?
α7 high through-put screening outcome (Ki not determined) (α7 nAChR subtype; [1]): ND; failed HTS; Ki (human α4β2 nAChR subtype): 96 nM; Ki (rat α4β2 nAChR subtype): 68 nM

How did the “α7 high through-put screening outcome (Ki not determined)” value (α7 nAChR subtype; [1]) turn out when Cc1cc(C(=O)N2CC3CNCC(C3)C2)on1 was run?
The value was “ND; failed HTS”.

What about the Ki (human α4β2 nAChR subtype; [2]) of the same molecule?
Its Ki is 47 nM.

And the Ki (rat α4β2 nAChR subtype)?
The Ki was 29 nM.

What does the source list for O=C(c1cc(C2CC2)on1)N1CC2CNCC(C2)C1?
α7 high through-put screening outcome (Ki not determined) (α7 nAChR subtype; [1]): ND; failed HTS; Ki (human α4β2 nAChR subtype; [2]): 83 nM; Ki (rat α4β2 nAChR subtype): 25 nM

For O=C(c1occc1Cl)N1CC2CNCC(C2)C1, which “α7 high through-put screening outcome (Ki not determined)” value (α7 nAChR subtype; [1]) is on record?
The value was “ND; failed HTS”.

And the Ki (human α4β2 nAChR subtype; [2])?
Its Ki is 29 nM.

What about the Ki (rat α4β2 nAChR subtype) of the same molecule?
Its Ki is 96 nM.

For O=C(c1cc(Br)c(Br)o1)N1CC2CNCC(C2)C1, which “α7 high through-put screening outcome (Ki not determined)” value (α7 nAChR subtype; [1]) is on record?
Its value is “ND; failed HTS”.

Which results are given for O=C(c1cc(Cl)co1)N1CC2CNCC(C2)C1?
α7 high through-put screening outcome (Ki not determined) (α7 nAChR subtype; [1]): ND; failed HTS; Ki (human α4β2 nAChR subtype; [2]): 5.2 nM; Ki (rat α4β2 nAChR subtype): 13 nM

Cc1oc(C(=O)N2CC3CNCC(C3)C2)cc1Br was tested. Which “α7 high through-put screening outcome (Ki not determined)” value (α7 nAChR subtype; [1]) did it give?
Its value is “ND; failed HTS”.

And the Ki (human α4β2 nAChR subtype; [2])?
The Ki was 5.2 nM.

And the Ki (rat α4β2 nAChR subtype)?
Its Ki is 7.5 nM.

With N#Cc1ccc(C(=O)N2CC3CNCC(C3)C2)o1 as the molecule, how does the “α7 high through-put screening outcome (Ki not determined)” value (α7 nAChR subtype; [1]) read?
The value was “ND; failed HTS”.

What about the Ki (human α4β2 nAChR subtype) of the same molecule?
The Ki was 8.7 nM.

And the Ki (rat α4β2 nAChR subtype)?
Its Ki is 35 nM.
